Experimental data from patent publication US11564920B2, “5-heteroaryl-1H-pyrazol-3-amine derivative” (Sumitomo Pharma Co., Ltd., priority 2020, dated 2023).

Key:
ES-2 cells = experiment: Cell growth suppression experiment; type: cell-based; details: for IC50: Homo sapiens, 48 h, cultured for 2 days, read-out: IC50 (cell growth suppression, ranking); for cell growth suppression effect (in words): compared with prexasertib
Protocol: ES-2 cells were obtained from the American Type Culture Collection (ATCC). These cells were cultured at 37° C. in the presence of 5% CO2 in a 10% fetal bovine serum, […] penicillin/streptomycin containing McCoy's 5a medium.
500 cells were seeded for each well in a 384-well plate, and the evaluated compound was added so that the final concentration of DMSO would be 0.1% to culture the cells for 2 days. After completion of the culture, the cell viability rate was calculated using CellTiter-Glo® 3D Reagent (Promega, G968B).

CHK1 = CHK1 (Homo sapiens (Human), UniProt O14757); experiment: CHK1 inhibitory activity test (IMAP TR-FRET); type: biochemical; details: for effect of suppressing CHK1 activity (in words): compared with prexasertib; for inhibition at 0.0001 µM: read-out: CHK1 inhibition % at 0.1 nM
CHK1, sequence (O14757 whole entry): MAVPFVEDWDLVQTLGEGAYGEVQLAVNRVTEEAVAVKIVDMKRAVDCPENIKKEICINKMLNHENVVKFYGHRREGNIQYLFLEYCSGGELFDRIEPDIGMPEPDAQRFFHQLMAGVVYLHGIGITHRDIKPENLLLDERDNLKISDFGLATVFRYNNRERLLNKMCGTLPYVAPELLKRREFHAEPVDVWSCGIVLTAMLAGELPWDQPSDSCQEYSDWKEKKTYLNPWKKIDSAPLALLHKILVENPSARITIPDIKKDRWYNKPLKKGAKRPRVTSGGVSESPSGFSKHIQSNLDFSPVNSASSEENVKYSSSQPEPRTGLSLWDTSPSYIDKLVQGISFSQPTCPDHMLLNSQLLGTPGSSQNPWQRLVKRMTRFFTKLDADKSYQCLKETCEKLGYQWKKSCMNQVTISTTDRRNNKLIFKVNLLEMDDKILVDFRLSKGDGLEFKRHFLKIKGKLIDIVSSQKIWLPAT
Protocol: IMAP TR-FRET Screening Express Kit (R8160) was obtained from Molecular Devices. […] FAM-PKAtide (R7255, Molecular Devices) and FAM-Phospho-PKAtide (R7304, Molecular Devices) were admixed after dilution, and calibration standard systems for phosphorylation levels from 0 to 100% were created. 5 μL of a compound dissolved in a 0.4% DMSO solution was added to a 384 well plate. A compound study group to which 5 μL of each of CHK1, CHK1tide, and ATP was added, and a standard group to which 20 μL of standard was added were created, and subjected to a kinase reaction for 3 hours at 30° C. Subsequently, 60 μL of Binding Reagent (80% Buffer A, 20% Buffer B, 1:600 Binding Reagent, 1:400 Tb-Donor) was added for a binding reaction for 2 hours at room temperature.

| Structure (SMILES) | IC50 (ES-2 cells) | effect of suppressing CHK1 activity (in words) (CHK1) | inhibition at 0.0001 µM (CHK1) | cell growth suppression effect (in words) (ES-2 cells) |
| --- | --- | --- | --- | --- |
| COc1cc(Cl)nc(OCCCN)c1-c1cc(Nc2cnc(C#N)cn2)n[nH]1 [Example 2, 5-({5-[2-(3-aminopropoxy)-6-chloro-4-methoxypyridin-3-yl]-1H-pyrazol-3-yl}amino)pyrazine-2-carbonitrile] | 30 to 100 nM | more potent effect of suppressing CHK1 activity than prexasertib | 31% |  |
| COc1cncc(OCCCN)c1-c1cc(Nc2cnc(C#N)cn2)n[nH]1 [Example 3, 5-({5-[3-(3-aminopropoxy)-5-methoxypyridin-4-yl]-1H-pyrazol-3-yl}amino)pyrazine-2-carbonitrile] | < 30 nM | more potent effect of suppressing CHK1 activity than prexasertib | 28% | excellent cell growth suppression effect that is equivalent to that of prexasertib |
| COc1nccc(OCCCN)c1-c1cc(Nc2cnc(C#N)cn2)n[nH]1 [Example 4, 5-({5-[4-(3-aminopropoxy)-2-methoxypyridin-3-yl]-1H-pyrazol-3-yl}amino)pyrazine-2-carbonitrile] | < 30 nM | more potent effect of suppressing CHK1 activity than prexasertib | 25% | excellent cell growth suppression effect that is equivalent to that of prexasertib |
| COc1cncc(OCC2(F)CNC2)c1-c1cc(Nc2cnc(C#N)cn2)n[nH]1 [Example 5, 5-[(5-{3-[(3-fluoroazetidin-3-yl)methoxy]-5-methoxypyridin-4-yl}-1H-pyrazol-3-yl)amino]pyrazine-2-carbonitrile] | < 30 nM |  | 15% |  |
| COc1nccc(OCC2(C)CNC2)c1-c1cc(Nc2cnc(C#N)cn2)n[nH]1 [Example 6, 5-[(5-{2-methoxy-4-[(3-methylazetidin-3-yl)methoxy]pyridin-3-yl}-1H-pyrazol-3-yl)amino]pyrazine-2-carbonitrile] | < 30 nM | more potent effect of suppressing CHK1 activity than prexasertib | 15% | excellent cell growth suppression effect that is equivalent to that of prexasertib |
| COc1nccc(OCC2(O)CNC2)c1-c1cc(Nc2cnc(C#N)cn2)n[nH]1 [Example 7, 5-[(5-{4-[(3-hydroxyazetidin-3-yl)methoxy]-2-methoxypyridin-3-yl}-1H-pyrazol-3-yl)amino]pyrazine-2-carbonitrile] | 30 to 100 nM | more potent effect of suppressing CHK1 activity than prexasertib | 29% |  |
| COc1cncc(OCC[C@@H](C)N)c1-c1cc(Nc2cnc(C#N)cn2)n[nH]1 [Example 9, 5-[(5-{3-[(3R)-3-aminobutoxy]-5-methoxypyridin-4-yl}-1H-pyrazol-3-yl)amino]pyrazine-2-carbonitrile] | 30 to 100 nM | more potent effect of suppressing CHK1 activity than prexasertib | 24% |  |
| COc1cncc(OCC[C@H](C)N)c1-c1cc(Nc2cnc(C#N)cn2)n[nH]1 [Example 10, 5-[(5-{3-[(3S)-3-aminobutoxy]-5-methoxypyridin-4-yl}-1H-pyrazol-3-yl)amino]pyrazine-2-carbonitrile] | 30 to 100 nM | more potent effect of suppressing CHK1 activity than prexasertib | 20% |  |
| COc1cncc(O[C@@H]2CC[C@@H](N)C2)c1-c1cc(Nc2cnc(C#N)cn2)n[nH]1 [Example 32, 5-{[5-(3-{[(1R,3R)-3-aminocyclopentyl]oxy}-5-methoxypyridin-4-yl)-1H-pyrazol-3-yl]amino}pyrazine-2-carbonitrile] | < 30 nM |  |  | excellent cell growth suppression effect that is equivalent to that of prexasertib |
